# Patent publication US20230183193A1, “4-DIFLUOROMETHYL BENZOYL AMIDES WITH HERBICIDAL ACTION” (BAYER CROPSCIENCE AKTIENGESELLSCHAFT, priority 2017, published 2023)
# What was measured:
# Assay type in all cases: in vivo
# Alopecurus myosuroides [1] = experiment: Pre-emergence herbicidal action, ALOMY; conditions: dosage 320 g/ha, scored visually after 3 weeks vs untreated controls
# How it was run: (§1)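 Percent herbicidal activity rated by eye 3 weeks after pre-emergence soil-surface application, compared with untreated pots. Seeds sat under sandy loam; sprays carried 0.2% wetting agent.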
# Cyperus serotinus = experiment: Pre-emergence herbicidal action, CYPES; conditions: dosage 320 g/ha, scored visually after 3 weeks vs untreated controls
# How it was run: as §1
# Pharbitis purpureum = experiment: Post-emergence herbicidal action, PHBPU; conditions: 80 g/ha, Table D
# How it was run: (§2)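 Greenhouse-grown plants were sprayed at the one-leaf stage, 2–3 weeks after sowing. Damage was scored visually after about 3 weeks against untreated controls, as % action (100% = dead, 0% = like control).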
# ECHCG = experiment: Post-emergence herbicidal action, ECHCG; conditions: 80 g/ha, Table C
# How it was run: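 Weed and crop plants grown in sandy loam in the greenhouse, treated at the one-leaf stage 2–3 weeks after sowing. Damage scored visually after about 3 weeks vs untreated controls (0% = control, 100% = dead).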
# Avena fatua [2] = experiment: Pre-emergence herbicidal action, AVEFA; conditions: dosage 320 g/ha, scored visually after 3 weeks vs untreated controls
# How it was run: as §1
# Setaria viridis [3] = experiment: Pre-emergence herbicidal action, SETVI; conditions: dosage 320 g/ha, scored visually after 3 weeks vs untreated controls
# How it was run: as §1
# Setaria viridis [4] = experiment: Post-emergence herbicidal action, SETVI; conditions: 80 g/ha, Table C
# How it was run: as §2
# Abutilon theophrasti [5] = experiment: Pre-emergence herbicidal action, ABUTH; conditions: dosage 320 g/ha, scored visually after 3 weeks vs untreated controls
# How it was run: as §1
# Abutilon theophrasti [6] = experiment: Post-emergence herbicidal action, ABUTH; conditions: 80 g/ha, Table D
# How it was run: as §2
# Viola tricolor [7] = experiment: Pre-emergence herbicidal action, VIOTR; conditions: dosage 320 g/ha, scored visually after 3 weeks vs untreated controls
# How it was run: as §1
# Amaranthus retroflexus [8] = experiment: Post-emergence herbicidal action, AMARE; conditions: 80 g/ha, Table D
# How it was run: as §2
# Avena fatua [9] = experiment: Post-emergence herbicidal action, AVEFA; conditions: 80 g/ha, Table C
# Procedure: (§3) Seeds of monocotyledonous and dicotyledonous weed and crop plants are laid out in sandy loam soil in wood-fiber pots, covered with soil and cultivated in a greenhouse under good growth conditions. 2 to 3 weeks after sowing, the test plants are treated at the one-leaf stage. The compounds of the invention, formulated in the form of wettable powders (WP) or as emulsion concentrates (EC), are then sprayed onto the green parts of the plants in the form of an aqueous suspension or emulsion at a water application rate equating to […], with addition of 0.2% wetting agent. After the test plants have been left to stand in the greenhouse under optimal growth conditions for about 3 weeks, the action of the preparations is assessed visually in comparison to untreated controls (herbicidal action in percent (%): 100% activity=the plants have died, 0% activity=like control plants). […] At the same time, inventive compounds leave Gramineae crops such as barley, wheat, rye, millet/sorghum, corn or rice virtually undamaged when applied post-emergence, even at high active compound dosages. In addition, some substances are also harmless to dicotyledonous crops such as soya, cotton, oilseed rape, sugar beet or potatoes. Some of the compounds according to the invention have high selectivity and are therefore suitable for controlling unwanted vegetation in agricultural crops by the post-emergence method. The data of Tables C and D below illustrate, in an exemplary manner, the […] herbicidal action of the compounds according to the invention, the herbicidal activity being stated in percent.
# (§4) For comparison, the herbicidal activity of numerous compounds according to the invention was tested with the structurally closest compounds known from the documents WO 2011/035874, WO 2012/028579 and WO 2012/126932, by the pre- and post-emergence method.
# Amaranthus retroflexus [10] = experiment: Pre-emergence herbicidal action, AMARE; conditions: dosage 320 g/ha, scored visually after 3 weeks vs untreated controls
# How it was run: as §1
# Stellaria media [11] = experiment: Post-emergence herbicidal action, STEME; conditions: 80 g/ha, Table D
# How it was run: as §2
# Viola tricolor [12] = experiment: Post-emergence herbicidal action, VIOTR; conditions: 80 g/ha, Table D
# How it was run: as §2
# Stellaria media [13] = experiment: Pre-emergence herbicidal action, STEME; conditions: dosage 320 g/ha, scored visually after 3 weeks vs untreated controls
# How it was run: as §1
# Matricaria inodora = experiment: Pre-emergence herbicidal action, MATIN; conditions: dosage 320 g/ha, scored visually after 3 weeks vs untreated controls
# How it was run: as §1
# Alopecurus myosuroides [14] = experiment: Post-emergence herbicidal action, ALOMY; conditions: 80 g/ha, Table C
# Procedure: as §3, §4
SMILES,herbicidal activity ALOMY (Alopecurus myosuroides [1]),herbicidal activity CYPES (Cyperus serotinus),Herbicidal activity PHBPU (Pharbitis purpureum),Herbicidal activity ECHCG (ECHCG),herbicidal activity AVEFA (Avena fatua [2]),herbicidal activity SETVI (Setaria viridis [3]),herbicidal activity SETVI (Setaria viridis [4]),herbicidal activity ABUTH (Abutilon theophrasti [5]),herbicidal activity ABUTH (Abutilon theophrasti [6]),herbicidal activity VIOTR (Viola tricolor [7]),herbicidal activity AMARE (Amaranthus retroflexus [8]),herbicidal activity AVEFA (Avena fatua [9]),herbicidal activity AMARE (Amaranthus retroflexus [10]),Herbicidal activity STEME (Stellaria media [11]),herbicidal activity VIOTR (Viola tricolor [12]),Herbicidal activity STEME (Stellaria media [13]),herbicidal activity MATIN (Matricaria inodora),herbicidal activity ALOMY (Alopecurus myosuroides [14])
CCc1c(C(=O)Nc2nnnn2C)ccc(C(F)F)c1[S+]([O-])CC (stereo not drawn) [Example 1-17],100%,100%,90%,90%,100%,100%,90%,100%,100%,100%,100%,90%,100%,100%,100%,100%,100%,90%
CC[S+]([O-])c1c(C(F)F)ccc(C(=O)Nc2nnnn2C)c1C (stereo not drawn) [Example 1-5],100%,100%,100%,100%,100%,100%,100%,100%,90%,100%,100%,100%,100%,100%,100%,90%,100%,100%
CCn1nnnc1NC(=O)c1ccc(C(F)F)c([S+](C)[O-])c1F (stereo not drawn) [Example 2-38],100%,100%,90%,100%,100%,100%,100%,100%,90%,100%,100%,90%,100%,100%,100%,100%,100%,90%
Cn1nnnc1NC(=O)c1ccc(C(F)F)c(S(C)(=O)=O)c1F [Example 1-39],90%,90%,100%,90%,100%,100%,100%,100%,90%,100%,100%,80%,100%,100%,100%,100%,100%,90%
CCn1nnnc1NC(=O)c1ccc(C(F)F)c([S+]([O-])CC)c1C (stereo not drawn) [Example 2-5],100%,80%,90%,100%,90%,100%,100%,100%,100%,100%,100%,100%,100%,100%,100%,90%,100%,90%
CCc1c(C(=O)Nc2nnnn2CC)ccc(C(F)F)c1S(=O)(=O)CC [Example 2-18],100%,90%,100%,90%,100%,100%,90%,100%,100%,100%,100%,100%,100%,100%,100%,100%,100%,80%
CCc1c(C(=O)Nc2nnc(C)o2)ccc(C(F)F)c1[S+](C)[O-] (stereo not drawn) [Example 7-12],100%,100%,90%,100%,100%,100%,90%,100%,100%,100%,100%,90%,100%,100%,100%,100%,100%,90%
CC[S+]([O-])c1c(C(F)F)ccc(C(=O)Nc2nnnn2C)c1F (stereo not drawn) [Example 1-41],100%,100%,90%,90%,100%,100%,90%,100%,100%,100%,100%,100%,100%,100%,100%,100%,100%,90%
CCn1nnnc1NC(=O)c1ccc(C(F)F)c(SC)c1C1CC1 [Example 2-25],100%,100%,100%,100%,100%,100%,100%,100%,100%,100%,100%,100%,100%,100%,100%,100%,100%,100%
CCc1c(C(=O)Nc2nnc(C)o2)ccc(C(F)F)c1S(=O)(=O)CC [Example 7-16],100%,100%,90%,90%,100%,100%,100%,100%,100%,100%,100%,90%,100%,100%,100%,100%,100%,90%
